# Measurements taken from US20240390526A1, “NEAR-INFRARED FLUORESCENT DYE-LOADED POLYMER MICROSPHERES FOR LABELLING LESIONS, AND FORMULATION THEREOF” (National Cancer Center, priority 2022, published 2024).
# Assay: Fluorescence spectrum / intensity of dye solutions, dye complexes and microsphere dispersions (multi-function microplate reader, λex=730 nm)
# Assay type: physicochemical
# Conditions: aqueous solution
# Experimental: 0.5 mg of indocyanine green (Dianogreen Injection) (ICG, Jeil Pharmaceutical Co., Ltd.) as a near-infrared fluorescent dye was dissolved in 1 mL of distilled water, and then diluted with distilled water to prepare an indocyanine green solution at a concentration of 30 μM. For the indocyanine green/human serum albumin (HSA, SK Plasma) complex for comparison of fluorescence signals with the indocyanine green solution, 0.5 mg of indocyanine green powder was dissolved in a mixed solution of 0.214 mL of human serum albumin solution (20% concentration) and 0.786 mL of distilled water, and then diluted with distilled water to prepare an indocyanine green/human serum albumin complex (ICG-HSA) at a concentration of 30 μM. To compare fluorescence spectra, 200 μL of each prepared solution was aliquoted and placed in a 96-well plate, and the fluorescence spectrum (λex=730 nm) was measured using a multi-function microplate reader (SPARK, Tecan Trading AG, Zurich, Switzerland).
# (§1) To compare fluorescence signals of the prepared the microspheres and the indocyanine green/human serum albumin complex, the same concentration of indocyanxhine green complex solution and dispersion of microparticles were prepared. […] Using the information on the content of indocyanine green in PLGA microspheres evaluated by the quantification, a dispersion was prepared by adding indocyanine green to 0.3 mL of distilled water so that the concentration was 30 μM. To compare fluorescence spectra, 200 μL of each of the prepared solution and dispersion was aliquoted and placed in a 96-well plate, and the fluorescence spectrum (λex=730 nm) was measured using a multi-function microplate reader (SPARK, Tecan Trading AG, Zurich, Switzerland).
# as §1, with “To compare the fluorescence signals” for “To compare fluorescence signals”, “the prepared microspheres and” for “the prepared the microspheres and”, “multi-function microplate reader. Fluorescence images were analyzed using fluorescence imaging equipment (IVIS Lumina XR, Xenogen Corporation-Caliper, CA, USA) after putting 300μl of the same solution into a microtube (λex=780/20 nm, λem=845/40 nm). […]” for “multi-function microplate reader (SPARK, Tecan Trading AG, Zurich, Switzerland).”
row,Compound,emission peak
1,"C[N+]1=C(C=CC2=CC(=CC=C3N(CCCCCC(=O)O)c4ccc(S(=O)(=O)[O-])cc4C3(C)C)CCC2)C(C)(C)c2cc(S(=O)(=O)[O-])ccc21.[K+] [Cy7, sulfo-cyanine7 carboxylic acid]",780 nm
2,"C[N+]1=C(C=CC2=CC(=CC=C3N(CCCCCC(=O)[O-])c4ccc5c(S(=O)(=O)[O-])cc(S(=O)(=O)[O-])cc5c4C3(C)C)CCC2)C(C)(C)c2c1ccc1c(S(=O)(=O)O)cc(S(=O)(=O)[O-])cc21.[K+].[K+].[K+] [Cy7.5, sulfo-cyanine7.5 carboxylic acid]",810 nm
3,"CC1(C)C(/C=C/C2=C(Oc3ccc(S(=O)(=O)O)cc3)C(=C/C=C3/N(CCCCS(=O)(=O)O)c4ccc(S(=O)(=O)[O-])cc4C3(C)C)/CCC2)=[N+](CCCCCC(=O)O)c2ccc(S(=O)(=O)O)cc21 [IRDye 800CW, IRDye® 800CW carboxylate]",806 nm
4,Flamma774 carboxylic acid,812 nm
